Results published in ChEMBL document CHEMBL4385663, “Discovery of novel PTHR1 antagonists: Design, synthesis, and structure activity relationships” (Bioorg Med Chem Lett, 2019).
Values after ≈ are worked out from the molar mass of the structure shown.

Key:
[1] = target: T1, Parathyroid hormone/parathyroid hormone-related peptide receptor (Homo sapiens, UniProt Q03431)
T1 sequence (Q03431 whole entry): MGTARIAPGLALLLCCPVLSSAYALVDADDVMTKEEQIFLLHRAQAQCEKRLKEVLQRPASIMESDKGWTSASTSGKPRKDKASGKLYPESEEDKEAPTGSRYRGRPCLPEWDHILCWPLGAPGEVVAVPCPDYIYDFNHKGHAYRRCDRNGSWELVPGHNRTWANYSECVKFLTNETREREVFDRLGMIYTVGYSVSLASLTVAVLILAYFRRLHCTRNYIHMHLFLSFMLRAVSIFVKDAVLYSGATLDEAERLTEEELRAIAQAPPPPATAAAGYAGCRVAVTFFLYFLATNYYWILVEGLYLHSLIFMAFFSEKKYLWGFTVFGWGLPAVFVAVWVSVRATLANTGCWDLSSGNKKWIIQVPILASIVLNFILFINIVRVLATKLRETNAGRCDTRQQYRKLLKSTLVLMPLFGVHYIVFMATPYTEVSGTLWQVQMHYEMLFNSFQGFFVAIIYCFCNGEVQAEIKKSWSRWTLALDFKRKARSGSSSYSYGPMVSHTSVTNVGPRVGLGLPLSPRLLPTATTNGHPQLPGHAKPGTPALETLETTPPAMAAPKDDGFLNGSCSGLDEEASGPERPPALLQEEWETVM
Description: Antagonist activity at human PTHR1 expressed in CHOK1 cells co-expressing Gs/Gq assessed as reduction in human PTH (1 to 34 residues)-induced cAMP accumulation incubated for 30 mins by HTRF assay

physchem = conditions: 1-octanol/phosphate buffered saline, pH 7.4
Description: Distribution coefficient, log D of the compound in 1-octanol and phosphate buffered saline at pH 7.4

[2] = Solubility of the compound in JP1 buffer at pH 1.2; assay type: physicochemical
[3] = Solubility of the compound in JP2 buffer at pH 6.8; assay type: physicochemical
[4] = Protein binding in rat plasma assessed as unbound fraction; assay type: ADME, cell-free
[5] = Clearance in Sprague-Dawley rat at 1 mg/kg, iv; assay type: ADME, organism-based; conditions: in vivo
[6] = Volume of distribution in Sprague-Dawley rat at 1 mg/kg, iv; assay type: ADME, organism-based; conditions: in vivo
[7] = Half life in Sprague-Dawley rat at 10 mg/kg, po; assay type: ADME, organism-based; conditions: in vivo
[8] = AUClast in Sprague-Dawley rat at 10 mg/kg, po; assay type: ADME, organism-based; set-up: dose 10 mg/kg, time 0 - last, route oral; conditions: in vivo
[9] = Oral bioavailability in Sprague-Dawley rat at 10 mg/kg; assay type: ADME, organism-based; conditions: in vivo
in vitro = conditions: rat, liver microsomes
Description: Metabolic stability in rat liver microsomes assessed as parent compound remaining after 0.5 hrs

IC50 [1] | SMILES | further results
6.8 µM | CC(C)C1(C)N=C(C2CCCCC2)c2ccc(Cl)cc2N(c2ccc(NCCN)cc2)C1=O (stereo not drawn) | 
> 100 µM | NCCNc1ccc(N2C(=O)CN(C3CCCCC3)C(=O)c3ccc(Cl)cc32)cc1 | 
14 µM | CC(C)C1N=C(C2CCCCC2)c2ccc(Cl)cc2N(c2ccc(NCCN)cc2)C1=O (stereo not drawn) | 
> 100 µM | NCCNc1ccc(N2C(=O)CN(C3CCCCC3)Cc3ccc(Cl)cc32)cc1 | logD (physchem): 1.4
44 µM | CN(C)C1N=C(C2CCCCC2)c2ccc(Cl)cc2N(c2ccc(NCCN)cc2)C1=O (stereo not drawn) | 
23 µM | CC(C)CC1=NC(C)(C)C(=O)N(c2ccc(NCCN)cc2)c2cc(Cl)ccc21 | 
0.09 µM | CC1(C)N=C(C2CCCCC2)c2ccc(C#N)cc2N(c2ccc(NCCNC3CCOCC3)cc2)C1=O | solubility [2]: 760 µg/mL (≈ 1480 µM); solubility [3]: 500 µg/mL (≈ 973 µM); fraction unbound [4]: 0.029; clearance [5]: 46.8 mL/min/kg; Vd [6]: 4.7 L/kg; half-life [7]: 4.23 h; AUC(0-t) [8]: 1940 ng·h/mL; bioavailability [9]: 27%; logD (physchem): 2.9; remaining at 0.5 h (in vitro): 28%
0.18 µM | CC1(C)N=C(C2CCCCC2)c2ccc(C#N)cc2N(c2ccc(NCCNC3CCN(S(C)(=O)=O)CC3)cc2)C1=O | 
9.4 µM | CC(C)N1N=C(C2CCCCC2)c2ccc(Cl)cc2N(c2ccc(CC3=NCCN3)cc2)C1=O | logD (physchem): 4.2
2.3 µM | CC1(C)N=C(C2CCCCC2)c2ccc(C#N)cc2N(c2ccc(NCCNC3CCCCC3)cc2)C1=O | 

SMILES | IC50 [1] | further results
CC1(C2=NC(C)(C)C(=O)N(c3ccc(NCCN)cc3)c3cc(Cl)ccc32)CCCCC1 | 16 µM | 
CC1(C)N=C(C2CCCCC2)c2ccc(C#N)cc2N(c2ccc(OCCN)cc2)C1=O | 4 µM | 
CC1(C)N=C(C2CCCCC2)c2ccc(C#N)cc2N(c2ccc(NCCN)cc2)C1=O | 0.73 µM | logD (physchem): 2.1
Cc1ccc2c(c1)N(c1ccc(NCCN)cc1)C(=O)C(C)(C)N=C2C1CCCCC1 | 6.1 µM | 
NCCNc1ccc(N2C(=O)CN=C(C3CCCCC3)c3ccc(Cl)cc32)cc1 | 38 µM | logD (physchem): 1.7
CC1(C)N=C(C2CCCCC2)c2ccc(C#N)cc2N(c2ccc(NCCCN)cc2)C1=O | 4.1 µM | 
CC1(C)N=C(C2CCCCC2)c2ccc(C#N)cc2N(c2ccc(CCCN)cc2)C1=O | 7.6 µM | 
CC1(C)N=C(c2ccccc2)c2ccc(Cl)cc2N(c2ccc(NCCN)cc2)C1=O | 45 µM | 
COc1ccc2c(c1)N(c1ccc(NCCN)cc1)C(=O)C(C)(C)N=C2C1CCCCC1 | 14 µM | 
